From patent publication US5734013A, “Peptides having farnesyl transferase inhibiting properties and strain of genus streptomyces for producing same” (Rhone-Poulenc Rorer S.A., priority 1994, dated 1998)
Starred links: 1 amine or outer side, 2 acyl side, 3 side chain; linkers in the order of their positions; H or OH if unused. Positions of bridges follow the written chain, without caps; N, C: chain ends. Non-standard residues stand in square brackets, D forms with d. Residues, ends and D or L forms follow the SMILES beside them. *: point of attachment. Trp(5-OH) = N[CH](Cc1c[nH]c2ccc(O)cc12)C(=O)O; Propanoyl(3-cHex) = O=C(CCC1CCCCC1)*; Hpg = N[CH](C(=O)O)c1ccc(O)cc1; NMeF = CN[CH](Cc1ccccc1)C(=O)O; X1 = CC1CC1(N[*:1])C(=O)[*:2]; Ac3c = NC1(C(=O)O)CC1

target: T1, farnesyl transferase (Ftase) (Homo sapiens, UniProt P49354+P49356); assay: Scintillation proximity assay (SPA) test for farnesyl transferase inhibition; format: biochemical; conditions: Ftase partially purified from human THP1 cells; biotinylated B lamin peptide (BLB) 0.1 μM, 3HFPP 0.12 μM; 37° C., 60 minutes
T1 construct: This enzyme was partially purified from human THP1 cells; endogenous in cells; host or cells: human THP1 cells (enzyme partially purified)
Experimental: The principle of SPA (scintillation proximity assay) technology is applied to assaying the enzymic activity of farnesyl transferase. According to this method, farnesyl transferase inhibitory activity is determined by the quantity of (^3 H)-farnesyl which is transferred from (^3 H)-farnesyl pyrophosphate ((^3 H) FPP) to a biotinylated acceptor substrate.
The acceptor substrate, which is biotinylated, is a peptide of 11 amino acids corresponding to the terminal sequence of B lamin (BLB). The donor substrate, farnesyl pyrophosphate, is labelled with tritrium (^3 HFPP). […] The radio-labelled peptide excites the beads, which then emit light which is quantified in a solid-liquid scintillation counter (Topcount®, Packard).
The SPA reaction is started by adding 40 μl of Ftase (2 μg) to a microtitre plate which contains 20 μl of BLB (0.1 μM), 20 μl of ^3 HFPP (0.12 μM) and 20 μl of assay buffer 50 mM Hepes, pH 7.5, 5 mM MgCl2, 5 mM DTT, 20 mM KCl, 0.01% triton X100 (control) or 20 μl of sample diluted in assay buffer (screening). The plate is incubated at 37° C. for 60 minutes and the reaction is stopped by adding 150 μl of stopping reagent containing the SPA beads. The plate is sealed with an adhesive film, left at ambient temperature for 30 minutes in order to reach equilibrium, and then counted in the Topcount counter. […] The IC50 values of the compounds are calculated by non-linear regression.

IC50 [nM]	Compound
626	CC1OC(=O)C2(CC2)NC(=O)C(c2ccc(O)cc2)NC(=O)C(Cc2c[nH]c3ccc(O)cc23)NC(=O)C(CCC(=O)O)NC(=O)C(Cc2ccccc2)N(C)C(=O)C1NC(=O)CCC1CCCCC1 (stereo not drawn) [Peptide 1] ({Propanoyl(3-cHex)}-T[NMeF]E[Trp(5-OH)][Hpg][Ac3c]; ester 1-C; configuration not given here)
538	CC1OC(=O)C2(CC2C)NC(=O)C(c2ccc(O)cc2)NC(=O)C(Cc2c[nH]c3ccc(O)cc23)NC(=O)C(CCC(=O)O)NC(=O)C(Cc2ccccc2)N(C)C(=O)C1NC(=O)CCC1CCCCC1 (stereo not drawn) [Peptide 2] ({Propanoyl(3-cHex)}-T[NMeF]E[Trp(5-OH)][Hpg][X1]; ester 1-C; configuration not given here)
1300	COC(=O)CCC1NC(=O)C(Cc2ccccc2)N(C)C(=O)C(NC(=O)CCC2CCCCC2)C(C)OC(=O)C2(CC2C)NC(=O)C(c2ccc(O)cc2)NC(=O)C(Cc2c[nH]c3ccc(O)cc23)NC1=O (stereo not drawn) [Peptide 3] ({Propanoyl(3-cHex)}-T[NMeF]E(OMe)[Trp(5-OH)][Hpg][X1]; ester 1-C; configuration not given here)
